These results are taken from patent EP0970046B1, “N-HYDROXY-2-(ALKYL, ARYL, OR HETEROARYL SULFANYL, SULFINYL OR SULFONYL)-3-SUBSTITUTED ALKYL, ARYL OR HETEROARYLAMIDES AS MATRIX METALLOPROTEINASE INHIBITORS” (Wyeth Holdings Corporation, priority 1997, dated 1998).

What all share (format): biochemical
One experiment addresses T1, TACE (Homo sapiens, UniProt P78536).
T1 construct: purchased Immunex
Put plainly: Procedure for Measuring TACE Inhibition. Conditions: for inhibition at 1 µM: read-out: TACE % inhibition at 1 micromolar; for IC50: read-out: TACE IC 50. The essentials:
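Single-concentration screen: test compound at 1 µM final, 10-min room-temperature preincubation with 1 µg/mL protease in Tris pH 7.4 buffer containing glycerol. Initial rate from linear fluorescence increase (340/420 nm) over 10 min after adding 100 µM peptidyl substrate; significance versus control rate by Dunnett's test.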

The next experiment concerns the target MMP 13 (Homo sapiens, UniProt P45452). Put plainly: MMP 13 inhibition (IC50 / manual assay; method not described). To be noted: for inhibition at 1 µM: read-out: MMP 13 % inhibition at 1 micromolar.
Another experiment addresses T2, MMP 9 (Homo sapiens, UniProt P14780).
T2 construct: from tissue; host or cells: human neutrophils
Put plainly: In Vitro Gelatinase Assay. To be noted: human neutrophil gelatinase B; for IC50: read-out: MMP 9 IC 50; for inhibition at 1 µM: read-out: MMP 9 % inhibition at 1 micromolar. The essentials: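 Human MMP-9 cleaves thiopeptide Ac-Pro-Leu-Gly(2-mercapto-4-methyl-pentanoyl)-Leu-Gly-OEt, with the released thiol reacting with DTNB. Substrate and DTNB were diluted together to 1 mM in 50 mM HEPES pH 7.5, 5 mM CaCl2. Rate came from the OD405 slope (r^2 >0.85), compared with control by Dunnett's test.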

Another experiment has as its target T3, MMP 1 (Homo sapiens, UniProt P03956).
T3 construct: human recombinant fibroblast collagenase (truncated, mw= 18,828, WAR, Radnor)
T3 sequence (P03956 100-269 limits assumed): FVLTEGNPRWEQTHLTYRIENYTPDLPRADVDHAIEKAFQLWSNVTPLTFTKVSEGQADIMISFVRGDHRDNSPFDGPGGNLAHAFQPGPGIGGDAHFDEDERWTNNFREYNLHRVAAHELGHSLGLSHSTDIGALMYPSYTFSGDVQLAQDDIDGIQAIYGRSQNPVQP
Description: In Vitro Collagenase Assay. Conditions: human recombinant fibroblast collagenase; for IC50: read-out: MMP 1 IC 50; for inhibition at 1 µM: read-out: MMP 1 % inhibition at 1 micromolar. Summed up: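 Collagenase (5 nM final) cleaves the quenched fluorogenic peptide Dnp-Pro-Cha-Gly-Cys(Me)-His-Ala-Lys(NMa)-NH2 (10 µM final) in HCBC buffer. Solvent is below 1.0%, and the reaction is started with substrate. Rate is taken from the fluorescence slope (r^2 >0.85), and drug-treated rates are compared with control by Dunnett's test.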

Molecules are shown by their SMILES. Read-outs that look alike come from different tables or passages of the source.

T1 sequence (P78536 215-824): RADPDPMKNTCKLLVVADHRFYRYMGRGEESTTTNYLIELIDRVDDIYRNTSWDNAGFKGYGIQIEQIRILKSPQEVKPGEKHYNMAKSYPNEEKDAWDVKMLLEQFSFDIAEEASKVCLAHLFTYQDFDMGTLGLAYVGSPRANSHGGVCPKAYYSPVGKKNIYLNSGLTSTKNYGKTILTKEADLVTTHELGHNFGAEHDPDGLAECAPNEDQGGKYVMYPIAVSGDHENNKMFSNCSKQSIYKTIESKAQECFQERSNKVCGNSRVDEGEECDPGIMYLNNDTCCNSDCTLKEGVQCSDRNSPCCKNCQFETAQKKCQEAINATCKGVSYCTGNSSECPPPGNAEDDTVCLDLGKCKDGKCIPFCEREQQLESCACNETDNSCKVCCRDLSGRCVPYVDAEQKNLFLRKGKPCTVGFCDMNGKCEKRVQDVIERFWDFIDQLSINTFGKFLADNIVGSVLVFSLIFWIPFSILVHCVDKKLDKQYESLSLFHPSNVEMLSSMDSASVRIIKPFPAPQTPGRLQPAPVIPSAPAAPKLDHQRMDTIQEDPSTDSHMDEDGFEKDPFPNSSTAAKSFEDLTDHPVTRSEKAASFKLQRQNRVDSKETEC
T2 sequence (P14780 94-707): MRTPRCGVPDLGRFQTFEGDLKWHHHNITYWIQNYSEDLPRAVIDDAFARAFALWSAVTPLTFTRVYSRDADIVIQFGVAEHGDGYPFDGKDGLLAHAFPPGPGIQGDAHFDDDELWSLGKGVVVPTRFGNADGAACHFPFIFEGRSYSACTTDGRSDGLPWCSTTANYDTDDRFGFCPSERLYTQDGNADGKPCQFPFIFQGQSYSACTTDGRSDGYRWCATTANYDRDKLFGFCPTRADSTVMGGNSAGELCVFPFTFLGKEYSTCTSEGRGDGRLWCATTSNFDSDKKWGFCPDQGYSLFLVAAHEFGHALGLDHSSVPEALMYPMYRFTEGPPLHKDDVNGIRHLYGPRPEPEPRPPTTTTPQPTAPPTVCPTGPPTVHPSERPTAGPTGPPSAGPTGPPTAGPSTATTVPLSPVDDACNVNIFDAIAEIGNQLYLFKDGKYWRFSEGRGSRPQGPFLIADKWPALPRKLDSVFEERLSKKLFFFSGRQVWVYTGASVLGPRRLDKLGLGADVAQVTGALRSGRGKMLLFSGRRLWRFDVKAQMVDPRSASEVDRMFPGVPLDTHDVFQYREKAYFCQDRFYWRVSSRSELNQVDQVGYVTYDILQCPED

Consider `COc1ccc(S(=O)(=O)C(C)(Cc2ccc(OCCCN3CCN(c4cccc(Cl)c4)CC3)cc2)C(=O)NO)cc1` (stereo not shown) [Example 23, 3-(4-{3-[4-(3-Chloro-phenyl)-piperazin-1-yl]-propoxy}-phenyl)-N-hydroxy-2-(4-methoxy-benzenesulfonyl)-2-methyl-propionamide], for which the inhibition at 1 µM at TACE was found to be 40.6%. Further, the IC50 at MMP 13 (read-out: MMP 13 IC 50) was found to be 4 nM; at MMP 9, 7.9 nM; on MMP 1 it was 593 nM.

Consider `CCN(CC)CCOc1cccc(CC(C)(C(=O)NO)S(=O)(=O)c2ccc(OC)cc2)c1` (stereo not shown) [Example 29, N-Hydroxy-2-(4-methoxy-benzenesulfonyl)-2-methyl-3-[3-(2-N,N-diethylamino-ethoxy)-phenyl]-propionamide], for which the “TACE % inhibition at 1 micromolar” value on TACE is listed as 41%. The IC50 came out at 3.6 nM at MMP 13 (read-out: MMP 13 IC 50), 4.3 nM on MMP 9 and 297 nM on MMP 1.

`COc1ccc(S(=O)(=O)C(C)(Cc2cccc(OCCN3CCOCC3)c2)C(=O)NO)cc1` (stereo not shown) [Example 30, N-Hydroxy-2-(4-methoxy-benzenesulfonyl)-2-methyl-3-[3-(2-morpholin-1-yl-ethoxy)-phenyl]-propionamide]: the inhibition at 1 µM at TACE stood at 25.2%. The IC50 at MMP 13 (read-out: MMP 13 IC 50) came to 5.7 nM; on MMP 9, 8.1 nM; at MMP 1, 397 nM.

`COc1ccc(S(=O)(=O)C(C)(CCCCN2C(=O)c3ccccc3C2=O)C(=O)NO)cc1` (stereo not shown) [Example 31, 6-(1,3-Dioxo-1,3-dihydro-isoindol-2-yl)-2-(4-methoxy-benzenesulfonyl)-2-methyl - hexanoic acid hydroxyamide]: the IC50 was determined as 688 nM at TACE, 5.7 nM on MMP 13 (read-out: MMP 13 IC 50), 15.2 nM on MMP 9 and 162 nM at MMP 1.

In the case of `CCC(Cc1ccc(OCCN2CCOCC2)cc1)(C(=O)NO)S(=O)(=O)c1ccc(OC)cc1` (stereo not shown) [Example 33, N-Hydroxy-2-(4-methoxy-benzenesulfonyl)-2-[4-(2-morpholin-4-yl-ethoxy)-benzyl]-butyramide], the inhibition at 1 µM at TACE is 23.9%. Further, the values for the IC50 on MMP 13 (read-out: MMP 13 IC 50), on MMP 9 and at MMP 1 were 18.4 nM, 53.9 nM and 318 nM, respectively.

Regarding `CCC(Cc1ccc(OCCN2CCCCC2)cc1)(C(=O)NO)S(=O)(=O)c1ccc(OC)cc1` (stereo not shown) [Example 34, N-Hydroxy-2-(4-methoxy-benzenesulfonyl)-2-[4-(2-piperidin-1-yl-ethoxy)-benzyl]-butyramide], on TACE, the inhibition at 1 µM is 28.1%. Moreover, the IC50 on MMP 13 (read-out: MMP 13 IC 50) was found to be 26.1 nM; on MMP 9 it was 34.7 nM; on MMP 1, 520 nM.

Take `CCCCCCC(Cc1ccc(OCCN2CCCCCC2)cc1)(C(=O)NO)S(=O)(=O)c1ccc(OC)cc1` (stereo not shown) [Example 36, 2-[4-(2-Azepan-1-yl-ethoxy)-benzyl]-2-(4-Methoxy-benzenesulfonyl)-octanoic acid hydroxyamide]: the IC50 at TACE was 826 nM; at MMP 13 (read-out: MMP 13 IC 50), 20.7 nM; on MMP 9, 83.8 nM; on MMP 1, 622 nM.

Take `CCCCCCC(Sc1ccc(F)cc1)C(=O)NO` (stereo not shown) [Example 38, 2-(4-Fluoro-phenylsulfanyl)-octanoic acid hydroxyamide]: the inhibition at 1 µM on TACE stood at 55.1%; at MMP 13 it was 5.8%; on MMP 9 (1 micromolar), 1.7%; at MMP 1 (1 micromolar), 48.3%.

Regarding `Cc1occc1S(=O)(=O)C(C)(Cc1ccccc1)C(=O)NO` (stereo not shown) [Example 43, 2-Methyl-2-(2-methyl-furan-3-sulfonyl)-3-phenyl-propionic acid hydroxamide], the inhibition at 1 µM was 46.6% on TACE, 55.5% at MMP 13, 34.7% at MMP 9 (1 micromolar) and 66.1% on MMP 1 (1 micromolar).

With `Cc1occc1S(=O)(=O)C(C)(Cc1ccc(OCCN2CCCCC2)cc1)C(=O)NO` (stereo not shown) [Example 44, 2-Methyl-2-(2-methyl-furan-3-sulfonyl)-3-[4-(2-piperidin-1-yl-ethoxy)-phenyl]-propionic acid hydroxamide], the inhibition at 1 µM on TACE worked out at 14.9%; at MMP 13, 39.5%; at MMP 9 (1 micromolar), 36.9%; on MMP 1 (1 micromolar) it was 47.1%.

As for `CCCCCCCCS(=O)(=O)C(Cc1ccc(OCCN2CCCCC2)cc1)C(=O)NO` (stereo not shown) [Example 46, 2-(octane-1-sulfonyl)-3-[4-(2-piperidin-yl-ethoxy)-phenyl]propionic acid hydroxamide], the “TACE % inhibition at 1 micromolar” value at TACE is on record as 1.4%. Further, the “MMP 13 % inhibition at 1 micromolar” value at MMP 13 came out at 84.7%. Moreover, the “MMP 9 % inhibition at 1 micromolar” value at MMP 9 (1 micromolar) came out at 79.12%. Moreover, the “MMP 1 % inhibition at 1 micromolar” value on MMP 1 (1 micromolar) was 78.9%.

Regarding `Cn1ccnc1S(=O)(=O)C(C)(Cc1ccc(-c2ccccc2)cc1)C(=O)NO` (stereo not shown) [Example 47, 3-Biphenyl-4-yl-2-methyl-2-(1-methyl-1H-imidazole-2-sulfonyl)-propionic acid hydroxyamide], the inhibition at 1 µM turned out to be 3.3% on TACE, 7.12% at MMP 13, 12.9% on MMP 9 (1 micromolar) and 17.1% on MMP 1 (1 micromolar).

Turning to `CC(Cc1ccccc1)(C(=O)NO)S(=O)(=O)c1cccs1` (stereo not shown) [Example 48, 2-Methyl-3-phenyl-2-(thiophene-2-sulfonyl)-propionic acid hydroxamide], the inhibition at 1 µM came out at 51.1% on TACE, 79.1% on MMP 9 (1 micromolar) and 99.1% on MMP 1 (1 micromolar). The “MMP 13 % inhibition at 1 micromolar” value on MMP 13 stood at 85.4%.

On to `COc1ccc(S(=O)(=O)C(C)(Cc2ccc(Br)cc2)C(=O)NO)cc1` (stereo not shown) [Example 51, 3-(4-Bromo-phenyl)-N-hydroxy-2-(4-methoxy-benzenesulfonyl)-2-methyl-propionamide], for which, on TACE, the inhibition at 1 µM came to 48.1%. In addition, the IC50 on MMP 13 (read-out: MMP 13 IC 50) was found to be 13.1 nM; on MMP 9 it was 10.4 nM; on MMP 1 it was 178 nM.

`COc1ccc(S(=O)(=O)C2(C(=O)NO)CCCC2)cc1` [Example 54, 1-(4-Methoxy-benzenesulfonyl)-cyclopentanecarboxylic acid hydroxyamide]: the inhibition at 1 µM on TACE worked out at 55.1%. Besides, the IC50 on MMP 13 (read-out: MMP 13 IC 50) was found to be 21 nM; on MMP 9 it was 66 nM; at MMP 1, 110 nM.

On to `COc1ccc(S(=O)(=O)C(C)(Cc2ccccc2Br)C(=O)NO)cc1` (stereo not shown) [Example 55, 3-(2-Bromo-phenyl)-N-hydroxy-2-(4-methoxy-benzenesulfonyl)-2-methyl-propionamide], for which, at TACE, the inhibition at 1 µM amounted to 21.7%. Further, the IC50 turned out to be 7 nM at MMP 13 (read-out: MMP 13 IC 50), 10 nM at MMP 9 and 303 nM at MMP 1.

As for `COc1ccc(S(=O)(=O)C(C)(CC=Cc2ccccc2)C(=O)NO)cc1` (stereo not shown) [Example 56, 2-(4-methoxy-benzenesulfonyl)-2-methyl-5-phenyl-pent-4-enoic acid hydroxyamide], at TACE, the inhibition at 1 µM was 65%. Further, the IC50 was 12 nM against MMP 13, 16 nM on MMP 9 and 299 nM at MMP 1.

As for `COc1ccc(S(=O)(=O)C(CCCc2ccccc2)(CCCc2ccccc2)C(=O)NO)cc1` [Example 57, 2-(4-methoxy-benzenesulfonyl)-5-phenyl-2-(3-phenyl-propyl)-pentanoic acid hydroxyamide], on TACE, the inhibition at 1 µM came to 16.6%. Also, the IC50 was found to be 191 nM at MMP 13 (read-out: MMP 13 IC 50), 332 nM on MMP 9 and 258 nM at MMP 1.

For `COc1ccc(S(=O)(=O)C(CC=C(C)C)(Cc2cccnc2)C(=O)NO)cc1` (stereo not shown) [Example 63, 2-(4-Methoxy-benzenesulfonyl)-5-methyl-2-pyridin-3-ylmethyl-hex-4-enoic acid hydroxyamide], the IC50 stood at 203 nM at TACE, 3 nM against MMP 13, 9 nM on MMP 9 and 156 nM on MMP 1.

`COc1ccc(S(=O)(=O)C(CCN(C(C)C)C(C)C)(Cc2ccccc2)C(=O)NO)cc1` (stereo not shown) [Example 64, 2-Benzyl-4-diisopropylamino-N-hydroxy-2-(4-methoxy-benzenesulfonyl)-butyramide]: the inhibition at 1 µM at TACE worked out at 29.7%; at MMP 13, 36.7%; at MMP 9 (1 micromolar) it was 25.6%; at MMP 1 (1 micromolar), 40.9%.

Consider `COc1ccc(S(=O)(=O)C(Cc2cccnc2)(CC2CCCCC2)C(=O)NO)cc1` (stereo not shown) [Example 65, 3-Cyclohexyl-N-hydroxy-2-(4-methoxy-benzenesulfonyl)-2-pyridin-3-ylmethyl-propionamide], for which, at TACE, the inhibition at 1 µM amounted to 42.2%. Also, the IC50 on MMP 13 (read-out: MMP 13 IC 50) is 13 nM; on MMP 9 it was 63 nM; on MMP 1 it was 1000 nM.

For `COc1ccc(S(=O)(=O)C(Cc2cccnc2)(CC(C)C)C(=O)NO)cc1` (stereo not shown) [Example 66, 2-(4-Methoxy-benzenesulfonyl)-4-methyl-2-pyridin-3-ylmethyl-pentanoic acid hydroxyamide], on TACE, the inhibition at 1 µM was determined as 42.3%. Further, the values for the IC50 on MMP 13 (read-out: MMP 13 IC 50), on MMP 9 and on MMP 1 were 226 nM, 131 nM and 1600 nM, respectively.

As a reminder, the inhibition is the drop in the measured response relative to a control, in per cent.
